Measurements: patent US20110288086A1, “POLYCYCLIC QUINAZOLINES, PREPARATION THEREOF, AND USE THEREOF” (priority 2010, published 2011)
Values after ≈ are worked out from the molar mass of the structure shown.

Assays:
[1] = system: PC-3 human carcinoma of prostate; experiment: Tumor cell IC50, CCK-8 kit, PC-3; type: cell-based; details: PC-3 cells
Description: (§1) The inhibitory activities of the compounds on tumor cells (IC50) in vitro
(§2) The IC50 (IC50, unit: μg/ml) values of the compounds on Hut78 T-Lymphocytic Leukemia cells, Jurkat E6-1 human T-cell lymphoma, PANC-1 human pancreatic cancer cells, A549 human lung cancer cells, K562 human chronicity marrow leukemic cells, Hep3B2. 1-7 human hepatoma carcinoma cells, MDA-MB-435s human breast carcinoma cells, Colo320 human rectal cancer cells, PC-3 human carcinoma of prostate, and HepG2 human hepatoma carcinoma cells were determined using a CCK-8 kit. Erlotinib hydrochloride was used as the positive control drug.

[2] = system: Colo320 human rectal cancer cells; experiment: Tumor cell IC50, CCK-8 kit, Colo320; type: cell-based; details: COLO 320
Description: as §1, §2

[3] = system: A549 human lung cancer cells; experiment: Tumor cell IC50, CCK-8 kit, A549; type: cell-based
Description: as §1, §2

[4] = system: Hut78 T-Lymphocytic Leukemia cells; experiment: Tumor cell IC50, CCK-8 kit, Hut78; type: cell-based; details: Homo sapiens, Hut-78 cells
Description: as §1, §2

[5] = system: MDA-MB-435s human breast carcinoma cells; experiment: Tumor cell IC50, CCK-8 kit, MDA-MB-435s; type: cell-based; details: 435s cells
Description: as §1, §2

[6] = system: Hut78 T-Lymphocytic Leukemia cells; experiment: Tumor cell inhibition ratio, CCK-8 kit, Hut78; details: Homo sapiens, HuT78, read-out: Antiproliferative effect (inhibition ratio) Hut-78
Description: (§3) The inhibitory activities of the compounds on tumor cells in vitro

[7] = system: Hep3B2.1-7 human hepatoma carcinoma cells; experiment: Tumor cell inhibition ratio, CCK-8 kit, Hep3B; details: read-out: Antiproliferative effect (inhibition ratio) Hep3B
Description: as §3

[8] = system: Hep3B2. 1-7 human hepatoma carcinoma cells; experiment: Tumor cell IC50, CCK-8 kit, Hep3B; type: cell-based
Description: as §1, §2

[9] = system: PANC-1 human pancreatic cancer cells; experiment: Tumor cell IC50, CCK-8 kit, PANC-1; type: cell-based; details: PANC-1 cells
Description: as §1, §2

[10] = system: Jurkat E6-1 human T-cell lymphoma; experiment: Tumor cell inhibition ratio, CCK-8 kit, Jurkat E6-1; details: Jurkat E6.1, read-out: Antiproliferative effect (inhibition ratio) E6-1
Description: as §3

EGFR tyrosine kinase = EGFR tyrosine kinase (Homo sapiens, UniProt P00533); experiment: EGFR tyrosine kinase inhibition in vitro (Invitrogen EGFR inhibitor screening kit PV3193)
Description: The inhibitory activities of EGFR tyrosine kinase in vitro
Erlotinib hydrochloride was used as a positive control drug.

[11] = system: Colo320 human rectal cancer cells; experiment: Tumor cell inhibition ratio, CCK-8 kit, Colo320; details: COLO 320, read-out: Antiproliferative effect (inhibition ratio) Colo320
Description: as §3

[12] = system: PANC-1 human pancreatic cancer cells; experiment: Tumor cell inhibition ratio, CCK-8 kit, PANC-1; details: PANC-1, read-out: Antiproliferative effect (inhibition ratio) PANC-1
Description: as §3

[13] = system: MDA-MB-435s human breast carcinoma cells; experiment: Tumor cell inhibition ratio, CCK-8 kit, MDA-MB-435s; details: read-out: Antiproliferative effect (inhibition ratio) 435s
Description: as §3

[14] = system: PC-3 human carcinoma of prostate; experiment: Tumor cell inhibition ratio, CCK-8 kit, PC-3; details: read-out: Antiproliferative effect (inhibition ratio) PC-3
Description: as §3

aurora kinase B = target: T1, aurora kinase B (Homo sapiens, UniProt Q96GD4); experiment: Aurora kinase B inhibition in vitro (Invitrogen aurora kinase screening kit PV3174); type: biochemical
T1 construct: purchased Invitrogen PV3174

[15] = system: K562 human chronicity marrow leukemic cells; experiment: Tumor cell inhibition ratio, CCK-8 kit, K562; details: K562, read-out: Antiproliferative effect (inhibition ratio) K562
Description: as §3

[16] = system: K562 human chronicity marrow leukemic cells; experiment: Tumor cell IC50, CCK-8 kit, K562; type: cell-based
Description: as §1, §2

[17] = system: A549 human lung cancer cells; experiment: Tumor cell inhibition ratio, CCK-8 kit, A549; details: A549, read-out: Antiproliferative effect (inhibition ratio) A549
Description: as §3

[18] = system: Jurkat E6-1 human T-cell lymphoma; experiment: Tumor cell IC50, CCK-8 kit, Jurkat E6-1; type: cell-based; details: E6-1 cells
Description: as §1, §2

Acute Toxicity Study = details: in vivo; preliminary screening, Bliss statistical method
Procedure: The acute toxicity experiments were carried out according to the methods disclosed in the book of Modern Pharmacological Methods, edited chiefly by Zhang Jun-Tian.

EGFR tyrosine kinase, sequence (P00533 25-1210): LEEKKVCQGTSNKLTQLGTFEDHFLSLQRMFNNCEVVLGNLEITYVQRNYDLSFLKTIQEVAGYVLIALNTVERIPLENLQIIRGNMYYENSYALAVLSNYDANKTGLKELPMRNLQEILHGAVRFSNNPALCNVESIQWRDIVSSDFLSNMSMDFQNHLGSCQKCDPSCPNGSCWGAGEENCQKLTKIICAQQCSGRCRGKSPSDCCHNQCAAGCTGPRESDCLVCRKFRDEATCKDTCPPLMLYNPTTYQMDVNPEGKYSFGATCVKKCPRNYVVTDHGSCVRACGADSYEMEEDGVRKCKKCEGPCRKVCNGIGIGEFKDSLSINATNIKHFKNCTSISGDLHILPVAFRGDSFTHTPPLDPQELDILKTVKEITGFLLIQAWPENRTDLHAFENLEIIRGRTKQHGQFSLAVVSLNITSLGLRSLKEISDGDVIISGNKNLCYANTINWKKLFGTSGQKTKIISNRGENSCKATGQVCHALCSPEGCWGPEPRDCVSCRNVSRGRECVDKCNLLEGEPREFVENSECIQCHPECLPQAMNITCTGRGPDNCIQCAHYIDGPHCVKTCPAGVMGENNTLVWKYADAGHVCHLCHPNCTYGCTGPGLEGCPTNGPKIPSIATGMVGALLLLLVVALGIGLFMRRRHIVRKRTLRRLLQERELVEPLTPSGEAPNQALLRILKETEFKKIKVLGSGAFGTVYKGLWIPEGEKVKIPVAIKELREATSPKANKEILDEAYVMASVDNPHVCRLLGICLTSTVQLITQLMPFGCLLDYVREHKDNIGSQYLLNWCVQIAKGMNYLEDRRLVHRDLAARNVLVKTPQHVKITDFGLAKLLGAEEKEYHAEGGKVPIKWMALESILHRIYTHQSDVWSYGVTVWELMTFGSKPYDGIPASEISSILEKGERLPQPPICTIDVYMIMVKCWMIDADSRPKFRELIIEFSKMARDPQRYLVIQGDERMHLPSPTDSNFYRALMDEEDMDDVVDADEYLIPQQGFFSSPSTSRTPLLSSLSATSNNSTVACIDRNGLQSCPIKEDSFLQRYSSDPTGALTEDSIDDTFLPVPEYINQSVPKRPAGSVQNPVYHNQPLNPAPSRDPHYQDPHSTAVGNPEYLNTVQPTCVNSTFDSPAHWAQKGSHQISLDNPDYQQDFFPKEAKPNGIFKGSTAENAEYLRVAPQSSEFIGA
T1 sequence (Q96GD4 whole entry): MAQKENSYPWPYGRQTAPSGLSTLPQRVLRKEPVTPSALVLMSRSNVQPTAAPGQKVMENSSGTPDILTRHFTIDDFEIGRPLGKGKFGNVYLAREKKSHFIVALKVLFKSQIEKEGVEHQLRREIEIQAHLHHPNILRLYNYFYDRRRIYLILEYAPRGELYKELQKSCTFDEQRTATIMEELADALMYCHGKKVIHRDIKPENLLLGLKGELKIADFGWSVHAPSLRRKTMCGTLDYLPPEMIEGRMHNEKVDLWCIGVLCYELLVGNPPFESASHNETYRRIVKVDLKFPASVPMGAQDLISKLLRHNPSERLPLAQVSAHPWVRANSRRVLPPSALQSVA

| Compound | IC50 [1] | IC50 [2] | IC50 [3] | IC50 [4] | IC50 [5] | inhibition at 10 µM [6] | inhibition at 100 µM [6] | inhibition at 10 µM [7] | inhibition at 100 µM [7] | IC50 [8] | IC50 [9] | inhibition at 10 µM [10] | inhibition at 100 µM [10] | The inhibition ratio of the compound on EGFR(%) (EGFR tyrosine kinase; 40 μM) | The inhibition ratio of the compound on EGFR(%) (EGFR tyrosine kinase; 200 μM) | inhibition at 10 µM [11] | inhibition at 100 µM [11] | inhibition at 10 µM [12] | inhibition at 100 µM [12] | inhibition at 10 µM [13] | other results |
| --- | --- | --- | --- | --- | --- | --- | --- | --- | --- | --- | --- | --- | --- | --- | --- | --- | --- | --- | --- | --- | --- |
| COCCOc1cc2c(cc1OCCOC)C1=Nc3cccc(Br)c3CN1C=N2.Cl [Compound V-2, 9-bromo-2,3-bis(2-methoxyethoxy)-8H-quinazolino[4,3-b]quinazoline hydrochloride hemihydrate] | 4.78 µg/mL | 32.3 µg/mL | 0.67 µg/mL | 61.1 µg/mL | 0.42 µg/mL | 28.9% | 73.8% | 53.5% | 90% | 9.83 µg/mL | 0.11 µg/mL | 56.2% | 83.1% | 62.9% | 97.9% | 57% | 89.6% | 59.7% | 95.9% | 59.8% | inhibition at 100 µM [13]: 82.6%; inhibition at 10 µM [14]: 72.2%; inhibition at 100 µM [14]: 92.7%; The inhibition ratio of the compound on Aurora B(%) (aurora kinase B; 40 μM): 53.2%; The inhibition ratio of the compound on Aurora B(%) (aurora kinase B; 200 μM): 95.8%; inhibition at 10 µM [15]: 65.4%; inhibition at 100 µM [15]: 91.1%; IC50 [16]: 34 µg/mL; inhibition at 10 µM [17]: 68.6%; inhibition at 100 µM [17]: 90.7%; IC50 [18]: 15.3 µg/mL; LD50 (Acute Toxicity Study): 2050 mg/kg |
| COCCOc1cc2c(cc1OCCOC)C1=Nc3cc(Cl)ccc3CN1C=N2 [Compound V-15, 11-chloro-2,3-bis(2-methoxyethoxy)-8H-quinazolino[4,3-b]quinazoline] | 24.6 µg/mL (≈ 59.2 µM) | 55.6 µg/mL (≈ 134 µM) | 1.01 µg/mL (≈ 2.43 µM) | 14.3 µg/mL (≈ 34.5 µM) | 21 µg/mL (≈ 50.5 µM) | 61% | 93.2% | 52.4% | 97.4% | 6.91 µg/mL (≈ 16.6 µM) | 8.32 µg/mL (≈ 20 µM) | 69.5% | 85.8% | 60.7% | 94.0% | 58.3% | 96.5% | 61.8% | 94.1% | 72.6% | inhibition at 100 µM [13]: 92%; inhibition at 10 µM [14]: 42.4%; inhibition at 100 µM [14]: 81.3%; The inhibition ratio of the compound on Aurora B(%) (aurora kinase B; 40 μM): 58.7%; The inhibition ratio of the compound on Aurora B(%) (aurora kinase B; 200 μM): 92.5%; inhibition at 10 µM [15]: 45.2%; inhibition at 100 µM [15]: 91.5%; IC50 [16]: 1.5 µg/mL (≈ 3.61 µM); inhibition at 10 µM [17]: 75.6%; inhibition at 100 µM [17]: 90.8%; IC50 [18]: 5.72 µg/mL (≈ 13.8 µM); LD50 (Acute Toxicity Study): 2970 mg/kg |
| COCCOc1cc2c(cc1OCCOC)C1=Nc3cc(COS(C)(=O)=O)cc([N+](=O)[O-])c3CN1C=N2.Cl [Compound V-20, mesylate-{9-nitro-2,3-bis(2-methoxyethoxy)-8H-quinazolino[4,3-b]quinazoline-11-methanol}ester hydrochloride] | 22.7 µg/mL | 13.1 µg/mL | 12.1 µg/mL | 55.3 µg/mL | 16.8 µg/mL | 52.3% | 82.1% | 60.7% | 92.2% | 71.4 µg/mL | 3.72 µg/mL | 57.9% | 95.6% | 59.9% | 98.4% | 66.9% | 92.3% | 54.8% | 88.2% | 65.7% | inhibition at 100 µM [13]: 93.9%; inhibition at 10 µM [14]: 46.8%; inhibition at 100 µM [14]: 75.2%; The inhibition ratio of the compound on Aurora B(%) (aurora kinase B; 40 μM): 58.9%; The inhibition ratio of the compound on Aurora B(%) (aurora kinase B; 200 μM): 96.4%; inhibition at 10 µM [15]: 40.7%; inhibition at 100 µM [15]: 97.4%; IC50 [16]: 10.1 µg/mL; inhibition at 10 µM [17]: 55%; inhibition at 100 µM [17]: 90.7%; IC50 [18]: 0.05 µg/mL; LD50 (Acute Toxicity Study): 750 mg/kg |
| COCCOc1cc2c(cc1OCCOC)C1=Nc3cc(Cl)ccc3C(C)N1C=N2.O=C(O)CC(O)C(=O)O (stereo not shown) [Compound V-22, 11-chloro-8-methyl-2,3-bis(2-methoxyethoxy)-8H-quinazolino[4,3-b]quinazoline malate] | 7.69 µg/mL | 4.67 µg/mL | 9.87 µg/mL | 11.4 µg/mL | 6.18 µg/mL | 54.1% | 94.6% | 62.3% | 90.7% | 14.4 µg/mL | 84.3 µg/mL | 67% | 98% | 63.2% | 95.6% | 43.8% | 99% | 60.9% | 95.4% | 63.4% | inhibition at 100 µM [13]: 94.1%; inhibition at 10 µM [14]: 64%; inhibition at 100 µM [14]: 97%; The inhibition ratio of the compound on Aurora B(%) (aurora kinase B; 40 μM): 57.2%; The inhibition ratio of the compound on Aurora B(%) (aurora kinase B; 200 μM): 95.6%; inhibition at 10 µM [15]: 23.1%; inhibition at 100 µM [15]: 88.8%; IC50 [16]: 19.6 µg/mL; inhibition at 10 µM [17]: 54.6%; inhibition at 100 µM [17]: 96.2%; IC50 [18]: 13.3 µg/mL; LD50 (Acute Toxicity Study): 1340 mg/kg |
| COc1cc2c(cc1OCCCN1CCCC1)C1=Nc3cccc(Cl)c3CN1C=N2 [Compound V-24, 9-chloro-3-methoxy-2-(3-(pyrrolidine-1-yl)propoxy)-8H-quinazolino[4,3-b]quinazoline] | 3.41 µg/mL (≈ 8.02 µM) | 4.76 µg/mL (≈ 11.2 µM) | 23.3 µg/mL (≈ 54.8 µM) | 2.14 µg/mL (≈ 5.04 µM) | 53.4 µg/mL (≈ 126 µM) | 44.3% | 99.6% | 60.3% | 94.6% | 43.1 µg/mL (≈ 101 µM) | 1.94 µg/mL (≈ 4.57 µM) | 46.6% | 87.3% | 53.1% | 94.3% | 52.7% | 99.4% | 42.4% | 99.9% | 48.9% | inhibition at 100 µM [13]: 66.2%; inhibition at 10 µM [14]: 53.5%; inhibition at 100 µM [14]: 98.9%; The inhibition ratio of the compound on Aurora B(%) (aurora kinase B; 40 μM): 52.5%; The inhibition ratio of the compound on Aurora B(%) (aurora kinase B; 200 μM): 90.3%; inhibition at 10 µM [15]: 53.6%; inhibition at 100 µM [15]: 93.8%; IC50 [16]: 10.3 µg/mL (≈ 24.3 µM); inhibition at 10 µM [17]: 50.7%; inhibition at 100 µM [17]: 98.2%; IC50 [18]: 9.86 µg/mL (≈ 23.2 µM) |
| COc1cc2c(cc1OCCCN1CCOCC1)C1=Nc3cc(Cl)ccc3CN1C=N2 [Compound V-28, 4-(3-((11-chloro-3-methoxy-8H-quinazolino[4,3-b]quinazoline-2-yl)oxy)propyl)morpholine] | 31.4 µg/mL (≈ 71.3 µM) | 59.7 µg/mL (≈ 135 µM) | 6.42 µg/mL (≈ 14.6 µM) | 16.7 µg/mL (≈ 37.9 µM) | 16.3 µg/mL (≈ 37 µM) | 59.2% | 90.5% | 40.1% | 92.8% | 36.8 µg/mL (≈ 83.3 µM) | 18.8 µg/mL (≈ 42.6 µM) | 40.4% | 95.4% | 64.4% | 98.7% | 16.3% | 63.3% | 51.7% | 95.6% | 54.9% | inhibition at 100 µM [13]: 90.7%; inhibition at 10 µM [14]: 56.4%; inhibition at 100 µM [14]: 88%; The inhibition ratio of the compound on Aurora B(%) (aurora kinase B; 40 μM): 45.2%; The inhibition ratio of the compound on Aurora B(%) (aurora kinase B; 200 μM): 78.7%; inhibition at 10 µM [15]: 64.6%; inhibition at 100 µM [15]: 99.9%; IC50 [16]: 7.84 µg/mL (≈ 17.8 µM); inhibition at 10 µM [17]: 53.7%; inhibition at 100 µM [17]: 97.5%; IC50 [18]: 10 µg/mL (≈ 22.7 µM) |
